Measured values reported in patent US20070032521A1, “Use of c-kit inhibitors for treating type II diabetes” (AB Science, priority 2003, published 2007).

Assays:
[1] = target: T1, purified intracellular domain of c-kit (Homo sapiens, UniProt P10721); test: in vitro TK inhibition assay (ELISA, phosphorylation of tyrosine containing target peptide); type: biochemical; settings: purified intracellular domain of c-kit expressed in baculovirus
T1 construct: purified intracellular domain of c-kit expressed in baculovirus; made in house
Method: in vitro TK Inhibition Assays
Experiments were performed using purified intracellular domain of c-kit expressed in baculovirus. Estimation of the kinase activity was assessed by the phosphoiylation of tyrosine containing target peptide estimated by established ELISA assay.

male db/db mice = test: Effect of c-kit inhibitors on serum glucose, insulin, triglycerides, cholesterol and NEFA levels in db/db mice; type: in vivo, mouse
Source text: Effect of different c-kit inhibitors on serum glucose, insulin, triglycerides, cholesterol and non esterified fatty acids levels in db/db mice
The objective of this study is to assess the effects of different c-kit inhibitors on serum glucose, insulin, triglycerides, cholesterol and non esterified fatty acids levels in male db/db mice dosed orally, once-a-day, for 5 days.
30 male 9/11 weeks old C57BL/Ks J Rj-db (db/db) mice (Janvier, France or Harlan, France), weighing in the target range of 30 to 50 g, will be included in this study.
One to three days before beginning the treatments (T0), mice will be weighed and blood samples will be collected through the retro-orbital plexus under isoflurane anesthesia. Blood samples will be kept at room temperature for 5 to 10 min to form a spontaneous clot, then put in ice until they are centrifuged at 3500×g for 10-15 min at 4° C. An aliquot of serum will be used for measuring glucose levels.
Six groups of 5 mice will be formed with respect to homogeneous glycemia values by using a randomization table. Animal showing glycemia below 20 mM will be excluded from the study.
From T1 to T5, the mice will be weighed and dosed once daily for 5 consecutive days at constant time.
At T5, 2 hours after the last administration, blood samples will be collected through the retro-orbital plexus under isoflurane anesthesia. Blood samples will be kept at room temperature for 5 to 10 min to form a spontaneous clot, then put in ice until they are centrifuged at 3500×g for 10 min at 4° C. Serum will be aliquoted and frozen at −20° C. until use. After blood collection, the mice will be euthanized by cervical dislocation.
Serum glucose and triglycerides levels will be determined using the Synchron C×4 analyzer. Serum non esterified fatty acids levels will be measured manually using a colorimetric method, and insulin levels determined by ELISA.
The results will be expressed as mean±SEM: • Glucose levels (mM) at T5 • Insulin levels (nM) at T5 • Triglycerides levels (mM) at T5 • Non esterified fatty acids levels (mM) at T5
For each parameter, a % of effect will be calculated according to following formula: ((vehicle group−test group)/vehicle group)*100
Statistical analysis will consist in a one-way analysis of variance followed by multiple comparisons versus the vehicle group (Dunnett's test). In case the equal variance test fails, a Kruskall-Wallis one-way analysis of variance on ranks will be proposed. A difference will be considered significant for p<0.05.

[2] = as compared to vehicle, 10 mg/kg p.o. for 5 days
[3] = serum, male db/db mice, 10 mg/kg p.o. once daily for 5 days, T5, mean ± SEM, n = 5

T1 sequence (P10721 546-976 limits assumed): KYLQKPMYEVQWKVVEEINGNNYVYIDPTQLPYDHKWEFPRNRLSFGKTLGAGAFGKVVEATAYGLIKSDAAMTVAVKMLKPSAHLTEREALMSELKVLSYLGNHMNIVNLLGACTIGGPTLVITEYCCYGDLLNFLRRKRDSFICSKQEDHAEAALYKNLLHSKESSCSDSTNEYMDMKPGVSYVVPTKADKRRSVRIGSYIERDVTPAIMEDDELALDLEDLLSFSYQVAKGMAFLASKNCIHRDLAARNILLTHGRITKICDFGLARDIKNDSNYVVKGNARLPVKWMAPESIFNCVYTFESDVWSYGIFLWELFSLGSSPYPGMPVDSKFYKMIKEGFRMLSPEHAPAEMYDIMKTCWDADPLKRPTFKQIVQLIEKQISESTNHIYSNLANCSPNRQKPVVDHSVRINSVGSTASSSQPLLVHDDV

SMILES	IC50 [1] [µM]	melting point [°C]	further results
Cc1ccc(NC(=O)c2ccc(NS(=O)(=O)c3cccs3)cc2)cc1Nc1nc(-c2cccnc2)cs1 [Compound 044, N-[4Methyl-3-(4-pyridin-3-yl-thiazol-2-ylamino)-phenyl]-4-(thiophene-2-sulfonylamino)-benzamide]	–	230 to 233	–
Cc1ccc(NC(=O)c2cccc(F)c2)cc1Nc1nc(-c2cccnc2)cs1 [Compound 045, 3-Fluoro-N-[4-methyl-3-(4-pyridin-3-yl-thiazol-2-ylamino)-phenyl]-benzamide]	–	184 to 186	–
Cc1ccc(NC(=O)c2ccc(-c3ccncc3)cc2)cc1Nc1nc(-c2cccnc2)cs1 [Compound 046, N-[4-Methyl-3-(4-pyridin-3-yl-thiazol-2-ylamino)-phenyl]-4-pyridin-4-yl-benzamide]	–	254 to 256	–
Cc1ccc(NC(=O)c2ccc(C(C)(C)C)cc2)cc1Nc1nc(-c2cccnc2)cs1 [Compound 049, 4-tert-Butyl-N-[4-methyl-3-(4-pyridin-3-yl-thiazol-2-ylamino)-phenyl]-benzamide]	< 10	145 to 150	–
Cc1ccc(NC(=O)c2ccc3c(c2)OCO3)cc1Nc1nc(-c2cccnc2)cs1 [Compound 051]	< 10	130 to 132	–
Cc1ccc(NC(=O)c2cccc(OCCN3CCOCC3)c2)cc1Nc1nc(-c2cccnc2)cs1 [Compound 052]	< 10	75 to 80	–
Cc1ccc(NC(=O)c2ccc(CNC(=O)OC(C)(C)C)cc2)cc1Nc1nc(-c2cccnc2)cs1 [Compound 073, {4-[4-Methyl-3-(4-pyridin-3-yl-thiazol-2-ylamino)-phenylcarbamoyl]-benzyl}-carbamic acid tert-butyl ester]	< 10	–	–
Cc1ccc(NC(=O)c2ccc(CN3CCN(C)CC3)c(C(F)(F)F)c2)cc1Nc1nc(-c2cccnc2)cs1 [Compound 075]	< 10	118 to 120	–
Cc1ccc(NC(=O)c2ccc(CN3CCN(C)CC3)c(Br)c2)cc1Nc1nc(-c2cccnc2)cs1 [Compound 078, 3-Bromo-4-(4-methyl-piperazin-1-ylmethyl)-N-[4-methyl-3-(4-pyridin-3-yl-thiazol-2-ylamino)-phenyl]-benzamide]	< 10	–	–
Cc1ccc(NC(=O)c2ccc(C(C)N3CCN(C)CC3)cc2)cc1Nc1nc(-c2cccnc2)cs1 (centres unmarked) [Compound 082]	< 10	153 to 155	–
Cc1cncc(-c2csc(Nc3cc(NC(=O)c4ccc(CN5CCN(C)CC5)cc4)ccc3C)n2)c1 [Compound 084, N-{4-Methyl-3-[4-(5-methyl-pyridin-3-yl)-thiazol-2-ylamino]-phenyl}-4-(4-methyl-piperazin-1-ylmethyl)-benzamide]	< 10	–	–
Cc1ccc(NC(=O)c2cc(Br)c(CNCCCN3CCOCC3)c(Br)c2)cc1Nc1nc(-c2cccnc2)cs1 [Compound 087, 3,5-Dibromo-N-[4-methyl-3-(4-pyridin-3-yl-thiazol-2-ylamino)-phenyl]-4-[(3-morpholin-4-yl-propylamino)-methyl]-benzamide]	< 10	–	–
Cc1ccc(NC(=O)c2cccc(N(C)C)c2)cc1Nc1nc(-c2cccnc2)cs1 [Compound 088, 3-Dimethylamino-N-[4-methyl-3-(4-pyridin-3-yl-thiazol-2-ylamino)-phenyl]-benzamide]	< 10	197 to 198	–
Cc1ccc(NC(=O)c2cccc(N3CCN(C)CC3)c2)cc1Nc1nc(-c2cccnc2)cs1 [Compound 089, 3-(4-Methyl-piperazin-1-yl)-N-[4-methyl-3-(4-pyridin-3-yl-thiazol-2-ylamino)-phenyl]-benzamide]	< 10	–	–
Cc1ccc(NC(=O)c2cccc(N3CCOCC3)c2)cc1Nc1nc(-c2cccnc2)cs1 [Compound 090, N-[4-Methyl-3-(4-pyridin-3-yl-thiazol-2-ylamino)-phenyl]-3-morpholin-4-yl-benzamide]	< 10	247 to 248	–
Cc1ccc(NC(=O)CCCN2CCOCC2)cc1Nc1nc(-c2cccnc2)cs1 [Compound 096, N-[4-Methyl-3-(4-pyridin-3-yl-thiazol-2-ylamino)-phenyl]-4-morpholin-4-yl-butyramide]	< 10	116 to 120	–
CN(CCOc1ccc(CC2SC(=O)NC2=O)cc1)c1ccccn1 (centres unmarked) [Rosiglitazone, rosiglitazone]	–	–	Cholesterol Effect (%) (male db/db mice; [2]): 19%; Glucose Effect (%) (male db/db mice; [2]): 59%; Insulin Effect (%) (male db/db mice; [2]): 77%; NEFA Effect (%) (male db/db mice; [2]): 63%; Triglycerides Effect (%) (male db/db mice; [2]): 71%; NEFA (male db/db mice; serum non esterified fatty acids, male db/db mice, 10 mg/kg p.o. once daily for 5 days, T5, mean ± SEM, n = 5): 0.31 ± 0.061 mM; Cholesterol (male db/db mice; [3]): 2.74 ± 0.47 mM; Glucose (male db/db mice; [3]): 11.25 ± 2.65 mM; Insulin (male db/db mice; [3]): 0.82 ± 0.27 nM; Triglycerides (male db/db mice; [3]): 0.46 ± 0.10 mM

Second part, led by results:

IC50 [1] [µM]	melting point [°C]	SMILES	further results
< 10	–	Cc1ccc(NC(=O)Nc2ccc(F)cc2)cc1Nc1nc(-c2cccnc2)cs1 [Compound 012, 1-(4-Fluoro-phenyl)-3-[4-methyl-3-(4-pyridin-3-yl-thiazol-2-ylamino)-phenyl]-urea]	–
< 10	–	Cc1ccc(NC(=O)N(C(=O)NC2CCCCC2)C2CCCCC2)cc1Nc1nc(-c2cccnc2)cs1 [Compound 016, 1-Cyclohexyl-1-(N-Cyclohexyl-formamide)-3-[4-methyl-3-(4-pyridin-3-yl-thiazol-2-ylamino)-phenyl]-urea]	–
< 10	–	Cc1ccc(NC(=O)Nc2ccc(OC(F)F)cc2)cc1Nc1nc(-c2cccnc2)cs1 [Compound 021, 1-(4-Difluoromethoxy-phenyl)-3-[4-methyl-3-(4-pyridin-3-yl-thiazol-2-ylamino)-phenyl]-urea]	–
< 10	210 to 215	Cc1ccc(NC(=O)Nc2cccc(F)c2)cc1Nc1nc(-c2cccnc2)cs1 [Compound 025, 1-(3-Fluoro-phenyl)-3-[4-methyl-3-(4-pyridin-3-yl-thiazol-2-ylamino)-phenyl]-urea]	–
< 10	210 to 215	Cc1ccc(NC(=O)Nc2ccc(C)c(Nc3nc(-c4cccnc4)cs3)c2)cc1 [Compound 026, 1-[4Methyl-3-(4-pyridin-3-yl-thiazol-2-ylamino)-phenyl]-3-p-tolyl-urea]	–
< 10	–	Cc1ccc(NC(=O)c2ccc(N(C)C)cc2)cc1Nc1nc(-c2cccnc2)cs1 [Compound 047, 4-Dimethylamino-N-[4-methyl-3-(4-pyridin-3-yl-thiazol-2-ylamino)-phenyl]-benzamide]	–
< 10	103 to 106	Cc1ccc(F)c(C(=O)Nc2ccc(C)c(Nc3nc(-c4cccnc4)cs3)c2)c1 [Compound 048, 2-Fluoro-5-methyl-N-[4-methyl-3-(4-pyridin-3-yl-thiazol-2-ylamino)-phenyl]-benzamide]	–
